Results taken from patent EP4806900A2, “RAS INHIBITORS” (Revolution Medicines, Inc., priority 2019, dated 2021).

system: NCI-H358 (K-Ras G12C); test: CellTiter-Glo cell viability assay, NCI-H358; assay type: cell-based, human; conditions: Homo sapiens, NCI-H358, Table 5; read-out: H358 Cell Viability assay data (K-Ras G12C, IC50)
Protocol: Note - The following protocol describes a procedure for monitoring cell viability of K-Ras mutant cancer cell lines in response to a compound of the invention. Other RAS isoforms may be employed, though the number of cells to be seeded will vary based on cell line used.
Test compounds (132.5 nL) were directly dispensed into the assay plates containing cells. […] On day 5, assay plates and their contents were equilibrated to room temperature for approximately 30 minutes. […] Luminescence was measured using the PerkinElmer Enspire. Data were normalized by the following: (Sample signal/Avg. DMSO)*100. The data were fit using a four-parameter logistic fit.

| SMILES | IC50 [µM] |
| --- | --- |
| CO[C@@H](C)c1ncccc1-c1c2c3cc(ccc3n1CC(F)(F)F)-c1cc(cc(C(F)F)c1)C[C@H](NC(=O)[C@H](C(C)C)N(C)C(=O)[C@H]1CCN(C(=O)C#CC(C)(C)N3CCC3)C1)C(=O)N1CCC[C@H](N1)C(=O)OCC(C)(C)C2 (atropisomer, axis not shown) [Compound A370] | < 0.01 |
| CCn1c(-c2cccnc2[C@H](C)OC)c2c3cc(ccc31)-c1cccc(c1)C[C@H](NC(=O)[C@H](C1CCCC1)N(C)C(=O)[C@@H]1CN(C(=O)C#CC(C)(C)N(C)C)C[C@@H]1C)C(=O)N1CCC[C@H](N1)C(=O)OCC(C)(C)C2 (atropisomer, axis not shown) [Compound A391] | < 0.01 |
| C=CC(=O)N1CC(CN2C(=O)O[C@H](C)[C@H]2C(=O)N[C@H]2Cc3cccc(c3)-c3ccc4c(c3)c(c(-c3cccnc3[C@H](C)OC)n4CC)CC(C)(C)COC(=O)[C@@H]3CCCN(N3)C2=O)C1 (atropisomer, axis not shown) [Compound A460] | > 1 |
| CCn1c(-c2cccnc2[C@H](C)OC)c2c3cc(ccc31)-c1cc(cc(C(F)F)c1)C[C@H](NC(=O)[C@H](C(C)C)N(C)C(=O)[C@H]1CCN(C(=O)C#CC(C)(C)N3CCC3)C1)C(=O)N1CCC[C@H](N1)C(=O)OCC(C)(C)C2 (atropisomer, axis not shown) [Compound A466] | < 0.01 |
| C=CC(=O)N1CC[C@H](C(=O)N(C)[C@H](C(=O)N[C@H]2CC3=CCCN(C3)c3ccc4c(c3)c(c(-c3cccnc3[C@H](C)OC)n4CC)CC(C)(C)COC(=O)[C@@H]3CCCN(N3)C2=O)C(C)C)C1 (atropisomer, axis not shown) [Compound A486] | 0.1 to 1 |
| C=CC(=O)N1CC[C@@H](C(=O)N(C)[C@H](C(=O)N[C@H]2Cc3cccc(c3)-c3ccc4c(c3)c(c(-c3cccnc3[C@H](C)OC)n4CC)CC(C)(C)COC(=O)[C@@H]3CCCN(N3)C2=O)C(C)C)C1 (atropisomer, axis not shown) [Compound A488] | < 0.01 |
| CO[C@@H](C)c1ncccc1-c1c2c3cc(ccc3n1CC(F)(F)F)-c1csc(n1)C[C@H](NC(=O)[C@H](C(C)C)N(C)C(=O)N1C[C@@H]3OCCN(C(=O)/C=C/CF)[C@@H]3C1)C(=O)N1CCC[C@H](N1)C(=O)OCC(C)(C)C2 (atropisomer, axis not shown) [Compound A571] | < 0.01 |
| CO[C@@H](C)c1ncccc1-c1c2c3cc(ccc3n1CC(F)(F)F)-c1csc(n1)C[C@H](NC(=O)[C@H](C(C)C)N(C)C(=O)N1C[C@@H]3OCCN(C(=O)/C=C/C(F)F)[C@@H]3C1)C(=O)N1CCC[C@H](N1)C(=O)OCC(C)(C)C2 (atropisomer, axis not shown) [Compound A572] | < 0.01 |
| CO[C@@H](C)c1ncccc1-c1c2c3cc(ccc3n1CC(F)(F)F)-c1csc(n1)C[C@H](NC(=O)[C@H](C(C)C)N(C)C(=O)N1C[C@@H]3OCCN(C(=O)/C=C/CN(C)C)[C@@H]3C1)C(=O)N1CCC[C@H](N1)C(=O)OCC(C)(C)C2 (atropisomer, axis not shown) [Compound A573] | 0.01 to 0.1 |
| CO[C@@H](C)c1ncccc1-c1c2c3cc(ccc3n1CC(F)(F)F)-c1nc(nn1C)C[C@H](NC(=O)[C@H](C(C)C)N(C)C(=O)C1(F)CCN(C(=O)C#CC(C)(C)N(C)C)CC1)C(=O)N1CCC[C@H](N1)C(=O)OCC(C)(C)C2 (atropisomer, axis not shown) [Compound A577] | < 0.01 |
| CCn1c(-c2cccnc2[C@H](C)OC)c2c3cc(ccc31)N1CCO[C@@H](C[C@H](NC(=O)[C@H](C(C)C)N3CC[C@@]4(CCN(C(=O)C#CC(C)(C)N(C)C)C4)C3=O)C(=O)N3CCC[C@H](N3)C(=O)OCC(C)(C)C2)C1 (atropisomer, axis not shown) [Compound A614] | 0.01 to 0.1 |
| CCn1c(-c2cccnc2[C@H](C)OC)c2c3cc(ccc31)-c1cccc(c1)C[C@H](NC(=O)[C@H](C(C)C)N(C)C(=O)C1(F)CCN(C(=O)C#CC(C)(C)N(C)C)CC1)C(=O)N1CCC[C@H](N1)C(=O)OCC(C)(C)C2 (atropisomer, axis not shown) [Compound A699] | < 0.01 |

same assay, conditions: Homo sapiens, NCI-H358, read-out: H358 Cell Viability assay data (K-Ras G12C, IC50, uM), Table 5

| SMILES | IC50 [µM] |
| --- | --- |
| CCn1c(-c2cccnc2[C@H](C)OC)c2c3cc(ccc31)-c1cccc(c1)C[C@H](NC(=O)[C@H](C(C)C)N(C)C(=O)[C@H]1CCN(C(=O)C#CCN(C)C)C1)C(=O)N1CCC[C@H](N1)C(=O)OCC(C)(C)C2 (atropisomer, axis not shown) [Compound A121] | < 0.01 |
| C=CS(=O)(=O)N1CC[C@H](C(=O)N(C)[C@H](C(=O)N[C@H]2Cc3cccc(c3)-c3ccc4c(c3)c(c(-c3cccnc3[C@H](C)OC)n4CC)CC(C)(C)COC(=O)[C@@H]3CCCN(N3)C2=O)C(C)C)C1 (atropisomer, axis not shown) [Compound A124] | < 0.01 |
| C=CC(=O)N1CC[C@H](C(=O)N(C)[C@H](C(=O)N[C@H]2Cc3cc(O)cc(c3)-c3ccc4c(c3)c(c(-c3cccnc3[C@H](CC)OC)n4CC)CC(C)(C)COC(=O)[C@@H]3CCCN(N3)C2=O)C(C)C)C1 (atropisomer, axis not shown) [Compound A181] | < 0.01 |
| C=CC(=O)Nc1cnc(C(=O)N(C)[C@H](C(=O)N[C@H]2Cc3cccc(c3)-c3ccc4c(c3)c(c(-c3cccnc3[C@H](C)OC)n4CC)CC(C)(C)COC(=O)[C@@H]3CCCN(N3)C2=O)C(C)C)n1C (atropisomer, axis not shown) [Compound A525] | < 0.01 |
| CCn1c(-c2cccnc2[C@H](C)OC)c2c3cc(ccc31)-c1cccc(c1)C[C@H](NC(=O)[C@H](C(C)C)N1CC[C@]3(CCN(C(=O)C#C[C@H]4COCCN4C)C3)C1=O)C(=O)N1CCC[C@H](N1)C(=O)OCC(C)(C)C2 (atropisomer, axis not shown) [Compound A592] | < 0.01 |
| C=CC(=O)N1CCO[C@H]2CCN(C(=O)N(C)[C@H](C(=O)N[C@H]3Cc4nc(cs4)-c4ccc5c(c4)c(c(-c4cccnc4[C@H](C)OC)n5CC)CC(C)(C)COC(=O)[C@@H]4CCCN(N4)C3=O)C(C)C)C[C@@H]21 (atropisomer, axis not shown) [Compound A609] | < 0.01 |
| CCn1c(-c2cccnc2[C@H](C)OC)c2c3cc(ccc31)-c1cccc(c1)C[C@H](NC(=O)[C@H](C(C)C)N(C)C(=O)[C@H]1CCN(C(=O)C#CC(C)(C)N3CCC(F)(F)C3)C1)C(=O)N1CCC[C@H](N1)C(=O)OCC(C)(C)C2 (relative stereo) [Compound A325] | 0.1 to 1 |
| C=CC(=O)N1CC[C@H](C(=O)N(C)[C@H](C(=O)N[C@H]2Cc3cc(O)cc(c3)-c3ccc4c(c3)c(c(-c3cc(CN(C)C)cnc3[C@H](C)OC)n4CC)CC(C)(C)COC(=O)[C@@H]3CCCN(N3)C2=O)C(C)C)C1 (single isomer, unassigned) [Compound A537] | < 0.01 |
| C=CC(=O)N1CC[C@H](C(=O)N(C)[C@H](C(=O)N[C@H]2Cc3cc(O)cc(c3)-c3ccc4c(c3)c(c(-c3cccnc3)n4[C@H](C)C#N)CC(C)(C)COC(=O)[C@@H]3CCCN(N3)C2=O)C(C)C)C1 [A193] | 0.1 to 1 |

same assay, conditions: Table 5; read-out: H358 Cell Viability assay data (K-Ras G12C, IC50)

| SMILES | IC50 [µM] |
| --- | --- |
| C=CC(=O)N1CC2(CCN2C(=O)N(C)[C@H](C(=O)N[C@H]2Cc3nc(n(C)n3)-c3ccc4c(c3)c(c(-c3cccnc3[C@H](C)OC)n4CC)CC(C)(C)COC(=O)[C@@H]3CCCN(N3)C2=O)C(C)C)C1 (atropisomer, axis not shown) [Compound A612] | 0.1 to 1 |
| CCn1c(-c2cccnc2[C@H](C)OC)c2c3cc(ccc31)-c1csc(n1)C[C@H](NC(=O)[C@H](C(C)C)N(C)C(=O)N1C[C@H]3CN(C(=O)C#CC(C)(C)N(C)C)CC[C@H]31)C(=O)N1CCC[C@H](N1)C(=O)OCC(C)(C)C2 (atropisomer, axis not shown) [Compound A624] | < 0.01 |
| CCn1c(-c2cccnc2[C@H](C)OC)c2c3cc(ccc31)-c1csc(n1)C[C@H](NC(=O)[C@H](C(C)C)N(C)C(=O)N1C[C@@H]3CN(C(=O)C#CC(C)(C)N(C)C)CC[C@@H]31)C(=O)N1CCC[C@H](N1)C(=O)OCC(C)(C)C2 (atropisomer, axis not shown) [Compound A625] | 0.01 to 0.1 |
| CCn1c(-c2cccnc2[C@H](C)OC)c2c3cc(ccc31)-c1csc(n1)C[C@H](NC(=O)[C@H](C(C)C)N(C)C(=O)N1CCCOC13CN(C(=O)C#CC(C)(C)N(C)C)C3)C(=O)N1CCC[C@H](N1)C(=O)OCC(C)(C)C2 (atropisomer, axis not shown) [Compound A666] | 0.01 to 0.1 |
| C=CC(=O)N1CC2(CCN2C(=O)N(C)[C@H](C(=O)N[C@H]2Cc3cccc(c3)-c3ccc4c(c3)c(c(-c3cccnc3[C@H](C)OC)n4CC)CC(C)(C)COC(=O)[C@@H]3CCCN(N3)C2=O)C(C)C)C1 (atropisomer, axis not shown) [Compound A684] | < 0.01 |

same assay, conditions: read-out: H358 Cell Viability assay data (K-Ras G12C, IC50); Table 5

| SMILES | IC50 [µM] |
| --- | --- |
| C=CC(=O)N1CC[C@H](C(=O)N(C)[C@H](C(=O)N[C@H]2Cc3cccc(c3)-c3ccc4c(c3)c(c(-c3cc(C5CCN(C)CC5)cnc3[C@H](C)OC)n4CC)CC(C)(C)COC(=O)[C@@H]3CCCN(N3)C2=O)C(C)C)C1 (atropisomer, axis not shown) [Compound A515] | < 0.01 |
| C=CC(=O)N1CC[C@H](C(=O)N(C)[C@H](C(=O)N[C@H]2Cc3nc(cs3)-c3ccc4c(c3)c(c(-c3cc(C5=CCN(C)CC5)cnc3[C@H](C)OC)n4CC)CC(C)(C)COC(=O)[C@@H]3CCCN(N3)C2=O)C(C)C)C1 (atropisomer, axis not shown) [Compound A520] | < 0.01 |
